Laboratory results: patent US8017644B2, “2-arylindole derivatives as nPGES-1 inhibitors” (Aziende Chimiche Riunite Angelini Francesco A.C.R.A.F. …, priority 2006, dated 2011)

What was measured:
[1] = tested on: production of PGE2 in A549 cells (mPGES-1); assay: Inhibition of PGE2 production in IL-1β-stimulated A549 cells (EIA); format: cell-based; settings: Homo sapiens; for inhibition at 10 µM: compound at 10 μm; for IC50: IL-1β-stimulated, read-out: pIC50 PGE2 (converted)
Description: (§1) The test used makes it possible to evaluate the inhibitory capacity of the test compounds on the production of PGE2 and the selectivity relative to the production of PGF2α. The human pulmonary adenocarcinoma cell line A549 was used, which is particularly sensitive to stimulation with proinflammatory cytokines, for instance IL-1β, and, in response to this stimulation, is particularly active in the production and release of two prostanoids: PGE2 and PGF2α (Thoren S. Jakobsson P-J, 2000).
(§2) The cells were stimulated with IL-1β (10 ng/ml) and simultaneously treated with the test compound for 22 hours in a suitable culture medium (DMEM—Dulbecco's Modified Eagles Medium) enriched with 5% fetal calf serum and L-glutamine (4 mM final) in an incubator at 37° C. and with a CO2 concentration of 5%.
(§3) At the end of the incubation, the amount of PGE2 and PGF2α, produced and released into the supernatant were assayed using an EIA kit (produced and sold by Cayman Chemicals, Ann Arbor, Mich., USA).
(§4) The comparative compound used was indomethacin at a concentration of 10 nM (Sigma-Aldrich), which is a non-steroidal anti-inflammatory drug that inhibits in equal measure both PGE2 and PGF2α.
(§5) For illustrative purposes, Table 3 collates the pIC50 values of a number of compounds of the invention, where pIC50 represents the negative logarithm of the IC50, which, in turn, represents the concentration of compound that inhibits the production of PGE2 or PGF2α by 50% relative to cells that are stimulated but not treated with the same compound.

[2] = tested on: production of PGF2α in A549 cells; assay: Inhibition of PGF2α production in IL-1β-stimulated A549 cells (EIA), selectivity; format: cell-based; settings: Homo sapiens; for inhibition at 10 µM: compound at 10 μm; for IC50: IL-1β-stimulated, read-out: pIC50 PGF2α (converted)
Description: as §1, §2, §3, §4, §5

[3] = tested on: acetic acid-induced stretching in mice; assay: Acetic acid-induced stretching in mice (inflammatory pain); format: in vivo; settings: female CD-1 mice; for No. of stretches: 20 minutes after acetic acid, vehicle 52; for % inhibition (stretches): vs vehicle (MTC)
Protocol: The test compound was evaluated in the model of acetic acid-induced stretching in mice (Stock J. L. et al., J Clin Inv 2001, 107: 325-331). This test makes it possible to evaluate the antinociceptive activity of the compounds of the invention in a model of inflammatory pain.
Female CD-1 mice weighing 25-30 g were used for the test. The animals were treated intraperitoneally with the test compound (0.1-10 mg/kg) suspended in methylcellulose (MTC). The control animals were treated with the vehicle alone (MTC) via the same route.
30 minutes after the treatment, the animals received an intraperitoneal injection of acetic acid (0.7 v/v in physiological solution, 16 μl/g of body weight) in order to induce inflammatory pain and to check the effects of the test compound on the nociceptive response.
Immediately after the administration of acetic acid and for the following 20 minutes, the number of stretches, which represents the parameter for evaluation of the nociceptive response, was measured.

[4] = tested on: production of PGE2 in U-937 cells (cPGES); assay: Inhibition of basal PGE2 production in U-937 cells (selectivity between isoforms of PGES); format: cell-based; settings: Homo sapiens, basal conditions; for inhibition at 10 µM: compound at 10 μM
Description: The test used makes it possible to evaluate the capacity of the compounds of the invention to inhibit the production of PGE2 in a human lymphoma cell line U-937 that preferentially expresses an enzymatic isoform (cPGES), which is responsible for the production of PGE2 under basal conditions, in the absence of pro-inflammatory stimuli. This enzymatic form is different from the one predominantly expressed in the A549 cells (mPGES-1) after a pro-inflammatory stimulus.
The absence of inhibitory activity on PGE2 in this cell model ensures the selectivity of the compound compared with the enzymatic form responsible for the production of PGE2 in the presence of inflammatory stimuli.
The reference compound used was indomethacin at a concentration of 10 nM.

[5] = indomethacin at 10 nM, IL-1β 10 ng/ml, 22 hours

IC50 [1] | SMILES | inhibition at 10 µM ([1]; IL-1β 10 ng/ml, 22 hours) | inhibition at 10 µM ([2]; IL-1β 10 ng/ml, 22 hours) | inhibition at 10 µM [4] | also measured
– | Cn1c(-c2ccccc2)cc2cc(NC(=O)c3ccccc3Cl)ccc21 [Compound 1] | 63% | < 20% | – | –
2 µM | CCn1c(-c2ccccc2)cc2cc(NC(=O)c3ccccc3Cl)ccc21 [Compound 2] | 76% | < 20% | < 20% | No. of stretches ([3]; 0.1 mg/kg intraperitoneally): 38; % inhibition (stretches) ([3]; 0.1 mg/kg intraperitoneally): 27%; No. of stretches ([3]; 1 mg/kg intraperitoneally): 36; % inhibition (stretches) ([3]; 1 mg/kg intraperitoneally): 31%; No. of stretches ([3]; 10 mg/kg intraperitoneally): 25; % inhibition (stretches) ([3]; 10 mg/kg intraperitoneally): 52%
– | CC(C)n1c(-c2ccccc2)cc2cc(NC(=O)c3ccccc3Cl)ccc21 [Compound 3] | 91% | 34% | – | –
– | CCn1c(-c2ccccc2F)cc2cc(NC(=O)c3ccccc3Cl)ccc21 [Compound 4] | 72% | < 20% | – | –
– | CCn1c(-c2cccc(F)c2)cc2cc(NC(=O)c3ccccc3Cl)ccc21 [Compound 5] | 91% | 36% | – | –
1.58 µM | CCn1c(-c2ccc(F)cc2)cc2cc(NC(=O)c3ccccc3Cl)ccc21 [Compound 6] | 82% | < 20% | < 20% | –
– | CCn1c(-c2ccccc2)c(C)c2cc(NC(=O)c3ccccc3Cl)ccc21 [Compound 7] | 90% | 39% | – | –
1.26 µM | CCn1c(-c2ccccc2)cc2cc(NC(=O)c3ccccc3C(F)(F)F)ccc21 [Compound 9] | 100% | < 20% | < 20% | IC50 [2]: 50.1 µM
2 µM | CCn1c(-c2ccccc2)cc2cc(NC(=O)c3c(Cl)cccc3Cl)ccc21 [Compound 10] | 76% | < 20% | 22% | IC50 [2]: > 100 µM
– | CCn1c(-c2ccccc2)cc2cc(NC(=O)c3cc([N+](=O)[O-])ccc3Cl)ccc21 [Compound 12] | 75% | < 20% | – | –
0.794 µM | CCn1c(-c2ccccc2)cc2cc(NC(=O)c3cc(Cl)ccc3Cl)ccc21 [Compound 13] | 100% | 36% | 30% | –
– | CCn1c(-c2ccccc2)cc2cc(NC(=O)c3ccccc3[N+](=O)[O-])ccc21 [Compound 16] | 74% | < 20% | – | –
2.51 µM | CCn1c(-c2ccccc2C)cc2cc(NC(=O)c3ccccc3Cl)ccc21 [Compound 18] | 66% | < 20% | < 20% | –
1 µM | CCn1c(-c2cccc(C)c2)cc2cc(NC(=O)c3ccccc3Cl)ccc21 [Compound 19] | 87% | 43% | < 20% | IC50 [2]: 100 µM
3.16 µM | CCn1c(-c2ccc(C)cc2)cc2cc(NC(=O)c3ccccc3Cl)ccc21 [Compound 20] | 75% | < 20% | < 20% | IC50 [2]: > 100 µM
– | CCOc1ccc(-c2cc3cc(NC(=O)c4ccccc4Cl)ccc3n2CC)cc1 [Compound 21] | 66% | < 20% | – | –
– | CCn1c(-c2ccc(OCc3ccccc3)cc2)cc2cc(NC(=O)c3ccccc3Cl)ccc21 [Compound 22] | 79% | < 20% | – | –
– | CCn1c(-c2cccc3ccccc23)cc2cc(NC(=O)c3ccccc3Cl)ccc21 [Compound 24] | 79% | < 20% | – | –
– | CCn1c(-c2ccc(Cl)c(C)c2)cc2cc(NC(=O)c3ccccc3Cl)ccc21 [Compound 25] | 89% | < 20% | – | –
– | CCn1c(-c2cccc(Cl)c2C)cc2cc(NC(=O)c3ccccc3Cl)ccc21 [Compound 28] | 65% | < 20% | – | –
– | CCn1c(-c2ccc(C)c(C)c2)cc2cc(NC(=O)c3ccccc3Cl)ccc21 [Compound 29] | 91% | < 20% | – | –
– | CCn1c(-c2ccc(OC)cc2)cc2cc(NC(=O)c3ccccc3Cl)ccc21 [Compound 30] | 75% | < 20% | – | –
0.00501 µM | COc1ccc2c(c1)c(CC(=O)O)c(C)n2C(=O)c1ccc(Cl)cc1 [Indomethacin, indomethacin, reference compound] | – | – | – | inhibition at 0.01 µM [1, 5]: 100%; IC50 [2]: 0.00251 µM; inhibition at 0.01 µM [2, 5]: 100%; inhibition at 0.01 µM ([4]; indomethacin at 10 nM): 78%
